Measurements from the CheMixHub viscosity set.

Assay: xn = mol fraction of the nth substance listed

CCCCn1cc[n+](C)c1.F[P-](F)(F)(F)(F)F + Cc1ccccc1
Conditions | viscosity [mPa·s]
310.65 K, 101 kPa, x1 = 0.8 | 31.65

Clc1cccc2ccccc12 + Cc1ccccc1
viscosity [mPa·s], 101.33 kPa
Conditions | x1 = 0.0995 | x1 = 0.1995 | x1 = 0.3037 | x1 = 0.3973 | x1 = 0.4962 | x1 = 0.597 | x1 = 0.6945 | x1 = 0.7972 | x1 = 0.8918
298.15 K | 0.596 | 0.711 | 0.838 | 0.979 | 1.16 | 1.357 | 1.614 | 1.941 | 2.321
303.15 K | 0.561 | 0.665 | 0.788 | 0.91 | 1.074 | 1.249 | 1.484 | 1.764 | 2.091
308.15 K | 0.529 | 0.626 | 0.727 | 0.849 | 0.995 | 1.153 | 1.361 | 1.616 | 1.88

Clc1ccccc1 + Cc1ccccc1C
101 kPa
Conditions | viscosity [mPa·s]
293.15 K, x1 = 0.1217 | 0.755
293.15 K, x1 = 0.2237 | 0.76
293.15 K, x1 = 0.4305 | 0.759
293.15 K, x1 = 0.5325 | 0.753
293.15 K, x1 = 0.6305 | 0.76
293.15 K, x1 = 0.7288 | 0.755
293.15 K, x1 = 0.8295 | 0.756
293.15 K, x1 = 0.9051 | 0.75
298.15 K, x1 = 0.1005 | 0.712
298.15 K, x1 = 0.2307 | 0.708
298.15 K, x1 = 0.3108 | 0.704
298.15 K, x1 = 0.4337 | 0.706
298.15 K, x1 = 0.5454 | 0.705
298.15 K, x1 = 0.6079 | 0.705
298.15 K, x1 = 0.7762 | 0.706
298.15 K, x1 = 0.8807 | 0.705
303.15 K, x1 = 0.1214 | 0.66
303.15 K, x1 = 0.2389 | 0.666
303.15 K, x1 = 0.3117 | 0.653
303.15 K, x1 = 0.4128 | 0.657
303.15 K, x1 = 0.5674 | 0.653
303.15 K, x1 = 0.6882 | 0.661
303.15 K, x1 = 0.7891 | 0.661
303.15 K, x1 = 0.9156 | 0.66

COCCOCCOCCOCCOC + ClC(Cl)(Cl)Cl
298.15 K, 101 kPa
Conditions | viscosity [mPa·s]
x1 = 0.0127 | 0.966
x1 = 0.0282 | 1.01
x1 = 0.0629 | 1.122
x1 = 0.1168 | 1.311
x1 = 0.1932 | 1.562
x1 = 0.2437 | 1.723
x1 = 0.2943 | 1.888
x1 = 0.3592 | 2.081
x1 = 0.3669 | 2.102
x1 = 0.4164 | 2.242
x1 = 0.4414 | 2.319
x1 = 0.511 | 2.487
x1 = 0.5854 | 2.656
x1 = 0.6215 | 2.732
x1 = 0.6944 | 2.874
x1 = 0.7318 | 2.94
x1 = 0.7968 | 3.067
x1 = 0.8566 | 3.16
x2 = 0.0114 | 3.287

CCCCn1cc[n+](C)c1.F[P-](F)(F)(F)(F)F + ClC(Cl)Cl
Conditions | viscosity [mPa·s]
298.15 K, 101 kPa, x2 = 0.0857 | 195
